In paper PMC5827430, “Oxidation of the FAD cofactor to the 8-formyl-derivative in human electron-transferring flavoprotein” (The Journal of Biological Chemistry, 2018):
Residue numbers refer to the chain shown, from its start.

Tests used:
[1] = target: T1, hETF (human electron-transferring flavoprotein) (Homo sapiens, UniProt P13804+P38117, P13804:H286A); assay: HPLC analysis of extracted cofactor; type: binding; details: purified at pH 7.0
T1 construct: gene ETFA; mature heterodimer from E. coli BL21(DE3), pET-28a+ operon; alpha from Gln-20; N-terminal His6 on beta (tag kept)
T1 sequence (P13804 20-333 H286A): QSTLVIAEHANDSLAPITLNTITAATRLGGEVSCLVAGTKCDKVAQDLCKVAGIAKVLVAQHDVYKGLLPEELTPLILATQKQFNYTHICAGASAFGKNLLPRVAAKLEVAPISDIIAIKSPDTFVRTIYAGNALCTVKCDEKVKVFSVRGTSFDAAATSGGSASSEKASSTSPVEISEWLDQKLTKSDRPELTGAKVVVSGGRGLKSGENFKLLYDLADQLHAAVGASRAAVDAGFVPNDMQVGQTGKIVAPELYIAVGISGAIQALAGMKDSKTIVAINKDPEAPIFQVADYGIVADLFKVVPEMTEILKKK
T1 sequence (P38117 1-255): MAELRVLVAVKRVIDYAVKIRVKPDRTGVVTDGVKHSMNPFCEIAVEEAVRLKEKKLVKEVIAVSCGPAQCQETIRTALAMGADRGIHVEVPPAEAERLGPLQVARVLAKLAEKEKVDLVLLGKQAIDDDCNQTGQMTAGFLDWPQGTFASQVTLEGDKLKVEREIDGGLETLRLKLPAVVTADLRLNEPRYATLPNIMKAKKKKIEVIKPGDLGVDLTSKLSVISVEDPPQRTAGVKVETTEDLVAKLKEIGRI

[2] = target: T2, hETF (human electron-transferring flavoprotein) (Homo sapiens, UniProt P13804+P38117, P38117:E165A); assay: UV-visible absorption; steady-state kinetics of the FAD form; details: purified at pH 7.0
T2 construct: gene ETFA; mature heterodimer from E. coli BL21(DE3), pET-28a+ operon; alpha from Gln-20; N-terminal His6 on beta (tag kept)
T2 sequence (P13804 20-333): T1 sequence (P13804 20-333 H286A) with A267H
T2 sequence (P38117 1-255 E165A): T1 sequence (P38117 1-255) with E165A

Cc1cc2nc3c(=O)[nH]c(=O)nc-3n(C[C@H](O)[C@H](O)[C@H](O)COP(=O)(O)OP(=O)(O)OC[C@H]3O[C@@H](n4cnc5c(N)ncnc54)[C@H](O)[C@@H]3O)c2cc1C [FAD]
HPLC analysis of extracted cofactor [1]: the FAD cofactor was bound weakly to the αH286A variant | UV-visible absorption; steady-state kinetics of the FAD form [2]: FAD formylation was absent in the freshly purified variant βE165A
